Assay results taken from ChEMBL document CHEMBL1201862, “PubChem BioAssay data set” (2004).
Calls of active or inactive are those of the source.

Columns and labels:
[1] = Shn3 3'UTR reporter inhibitors, dose response, cell-based, Clone20 osteoblasts, firefly luciferase, cherry-picked (AID 624132); type: functional;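 note: firefly luciferase luminescence from reporter carrying the Shn3 3'UTR in osteoblasts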
[2] = HepG2 cell cytotoxicity, dose response, cytotoxicity control for Shn3 inhibitor project, CellTiter-Glo, cherry-picked (AID 624134); type: functional, cell-based
INS1 = test: beta cell apoptosis inhibitors, cytokine rescue, dose response, luminescence, retest (AID 449756); type: functional, cell-based; settings: Rattus norvegicus;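 note: cell death triggered by IL-1 beta plus TNF-alpha plus IFN-gamma mixture; protective hits raise ATP signal compared with cytokine alone wells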
[3] = reduction of Shn3 3'UTR firefly luciferase signal, dose response, Schnurri-3 inhibitor project, cell-based, Clone20 osteoblasts, cherry-pick, set 2 (AID 720490); type: functional;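 note: actives lower the luminescence signal as inhibitors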
[4] = control 3'UTR Renilla luciferase suppression, dose response, counter-screen for Shn3 inhibitor project, cell-based, Clone20-Shn3RL, cherry-picked (AID 624133); type: functional
Protein RecA = biological target: T1, Protein RecA (Mycobacterium tuberculosis, UniProt P9WHJ3); test: Fluorescence Cell-Free Homogeneous Dose Retest to Identify Inhibitors of RecA-Intein Splicing Activity. [Related pubchem assays (depositor defined):AID2097, AID2223, AID489010, AID492950]; type: functional
T1 sequence (P9WHJ3 whole entry): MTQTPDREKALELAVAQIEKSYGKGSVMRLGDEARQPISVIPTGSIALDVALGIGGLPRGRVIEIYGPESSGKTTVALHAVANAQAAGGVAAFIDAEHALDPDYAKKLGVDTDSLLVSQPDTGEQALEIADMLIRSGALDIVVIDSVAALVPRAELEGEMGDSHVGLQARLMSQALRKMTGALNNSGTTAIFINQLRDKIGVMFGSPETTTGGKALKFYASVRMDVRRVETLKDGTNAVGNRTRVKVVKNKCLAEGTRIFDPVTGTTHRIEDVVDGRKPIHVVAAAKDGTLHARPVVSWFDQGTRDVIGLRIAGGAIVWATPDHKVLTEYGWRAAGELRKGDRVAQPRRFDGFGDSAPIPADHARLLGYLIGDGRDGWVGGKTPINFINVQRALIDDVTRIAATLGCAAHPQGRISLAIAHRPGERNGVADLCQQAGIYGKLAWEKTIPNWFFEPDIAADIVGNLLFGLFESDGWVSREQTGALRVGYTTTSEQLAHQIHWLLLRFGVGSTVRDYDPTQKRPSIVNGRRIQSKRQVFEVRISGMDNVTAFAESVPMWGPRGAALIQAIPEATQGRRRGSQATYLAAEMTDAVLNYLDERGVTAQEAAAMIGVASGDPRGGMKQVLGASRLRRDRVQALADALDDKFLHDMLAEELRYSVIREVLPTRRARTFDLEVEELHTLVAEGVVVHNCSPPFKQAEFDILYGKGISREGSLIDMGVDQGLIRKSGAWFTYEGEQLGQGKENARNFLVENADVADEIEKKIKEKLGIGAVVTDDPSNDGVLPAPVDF

[5] = biological target: Heat shock protein HSP 90-alpha (Homo sapiens, UniProt P07900); type: functional, organism-based
[6] = inhibitors of intracellular T. cruzi replication, confirmation, NIH3T3 host cells, beta-gal luminescence (AID 2044); type: functional, cell-based;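 note: intracellular parasites grown in NIH/3T3 mouse fibroblasts as host cells; luminescent beta-galactosidase reporter signal from transgenic T. cruzi replicating inside host cells; inhibitors lower the luminescence signal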
[7] = test system: Streptococcus sp. 'group A'; test: growth inhibition of control SK(-) GAS strain, dose response, counter-screen for streptokinase expression inhibitor project, luminescence, kanamycin, BacTiterGlo, confirmation (AID 1900); type: functional, organism-based
[8] = biological target: T2, Replicative DNA helicase DnaB (Mycobacterium tuberculosis, UniProt P9WMR3); test: DnaB intein splicing inhibitors, dose response, biochemical, cell-free fluorescence (AID 449749); type: functional
T2 sequence (P9WMR3 whole entry): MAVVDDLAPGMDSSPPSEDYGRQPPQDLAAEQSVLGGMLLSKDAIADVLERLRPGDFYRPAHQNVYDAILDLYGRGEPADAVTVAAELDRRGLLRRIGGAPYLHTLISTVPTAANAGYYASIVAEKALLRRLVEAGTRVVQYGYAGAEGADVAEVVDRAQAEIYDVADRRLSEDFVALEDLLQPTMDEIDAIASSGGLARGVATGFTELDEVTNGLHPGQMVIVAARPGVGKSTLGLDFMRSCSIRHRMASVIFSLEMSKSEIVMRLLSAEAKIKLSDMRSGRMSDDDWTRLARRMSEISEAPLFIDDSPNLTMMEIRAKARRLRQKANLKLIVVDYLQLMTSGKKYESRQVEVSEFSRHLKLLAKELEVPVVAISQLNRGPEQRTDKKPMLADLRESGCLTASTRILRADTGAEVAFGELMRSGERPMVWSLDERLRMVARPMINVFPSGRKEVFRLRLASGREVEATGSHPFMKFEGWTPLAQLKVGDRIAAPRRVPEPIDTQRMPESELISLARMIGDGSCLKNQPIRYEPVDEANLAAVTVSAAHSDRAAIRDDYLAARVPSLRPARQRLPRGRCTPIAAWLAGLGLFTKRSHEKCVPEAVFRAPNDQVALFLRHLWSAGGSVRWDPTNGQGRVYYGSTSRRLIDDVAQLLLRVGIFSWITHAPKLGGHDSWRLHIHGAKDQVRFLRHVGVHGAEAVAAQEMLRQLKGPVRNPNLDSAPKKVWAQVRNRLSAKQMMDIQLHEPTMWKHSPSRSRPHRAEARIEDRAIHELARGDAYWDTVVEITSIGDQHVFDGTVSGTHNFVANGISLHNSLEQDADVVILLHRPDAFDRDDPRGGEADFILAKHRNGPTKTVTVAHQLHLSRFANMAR

[9] = biological target: DNA repair protein RAD52 homolog (Homo sapiens, UniProt P43351); type: functional, biochemical
Streptococcus = test: Group A Streptococcus viability loss, dose response, counter-screen for streptokinase expression inhibitor project, luminescence, BacTiterGlo (AID 1915); type: functional, organism-based;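 note: potency for reduction of bacterial viability or growth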
Melanocortin receptor 4 = Melanocortin receptor 4 (Homo sapiens, UniProt P32245); type: functional, cell-based;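 note: Cell-based assay with luminescence read-out, confirmatory dose-response testing for agonist activity of biased ligands at MC4R; human U2OS cells with tagged receptor and beta-arrestin; potency of agonists that increase receptor coupling to beta-arrestin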
[10] = cytotoxicity toward NIH3T3 fibroblasts, dose response, counter-screen, cell-based, ATP luminescence, mouse fibroblasts (AID 2010); type: functional;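 note: cells exposed to compound for about 90 hours before reading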
[11] = biological target: T3, Ubiquitin-conjugating enzyme E2 N (Homo sapiens, UniProt P61088); type: functional;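 note: Dose-response confirmation in a TR-FRET assay detecting UBC13-driven polyubiquitin chain formation, inhibition measured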
T3 sequence (P61088 whole entry): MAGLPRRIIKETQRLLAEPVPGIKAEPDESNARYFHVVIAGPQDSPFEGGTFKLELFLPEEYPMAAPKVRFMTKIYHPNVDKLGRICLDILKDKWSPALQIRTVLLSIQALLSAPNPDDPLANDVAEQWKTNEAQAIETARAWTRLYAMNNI

[12] = biological target: T4, Apoptotic protease-activating factor 1 (Homo sapiens, UniProt O14727); type: functional
T4 sequence (O14727 whole entry): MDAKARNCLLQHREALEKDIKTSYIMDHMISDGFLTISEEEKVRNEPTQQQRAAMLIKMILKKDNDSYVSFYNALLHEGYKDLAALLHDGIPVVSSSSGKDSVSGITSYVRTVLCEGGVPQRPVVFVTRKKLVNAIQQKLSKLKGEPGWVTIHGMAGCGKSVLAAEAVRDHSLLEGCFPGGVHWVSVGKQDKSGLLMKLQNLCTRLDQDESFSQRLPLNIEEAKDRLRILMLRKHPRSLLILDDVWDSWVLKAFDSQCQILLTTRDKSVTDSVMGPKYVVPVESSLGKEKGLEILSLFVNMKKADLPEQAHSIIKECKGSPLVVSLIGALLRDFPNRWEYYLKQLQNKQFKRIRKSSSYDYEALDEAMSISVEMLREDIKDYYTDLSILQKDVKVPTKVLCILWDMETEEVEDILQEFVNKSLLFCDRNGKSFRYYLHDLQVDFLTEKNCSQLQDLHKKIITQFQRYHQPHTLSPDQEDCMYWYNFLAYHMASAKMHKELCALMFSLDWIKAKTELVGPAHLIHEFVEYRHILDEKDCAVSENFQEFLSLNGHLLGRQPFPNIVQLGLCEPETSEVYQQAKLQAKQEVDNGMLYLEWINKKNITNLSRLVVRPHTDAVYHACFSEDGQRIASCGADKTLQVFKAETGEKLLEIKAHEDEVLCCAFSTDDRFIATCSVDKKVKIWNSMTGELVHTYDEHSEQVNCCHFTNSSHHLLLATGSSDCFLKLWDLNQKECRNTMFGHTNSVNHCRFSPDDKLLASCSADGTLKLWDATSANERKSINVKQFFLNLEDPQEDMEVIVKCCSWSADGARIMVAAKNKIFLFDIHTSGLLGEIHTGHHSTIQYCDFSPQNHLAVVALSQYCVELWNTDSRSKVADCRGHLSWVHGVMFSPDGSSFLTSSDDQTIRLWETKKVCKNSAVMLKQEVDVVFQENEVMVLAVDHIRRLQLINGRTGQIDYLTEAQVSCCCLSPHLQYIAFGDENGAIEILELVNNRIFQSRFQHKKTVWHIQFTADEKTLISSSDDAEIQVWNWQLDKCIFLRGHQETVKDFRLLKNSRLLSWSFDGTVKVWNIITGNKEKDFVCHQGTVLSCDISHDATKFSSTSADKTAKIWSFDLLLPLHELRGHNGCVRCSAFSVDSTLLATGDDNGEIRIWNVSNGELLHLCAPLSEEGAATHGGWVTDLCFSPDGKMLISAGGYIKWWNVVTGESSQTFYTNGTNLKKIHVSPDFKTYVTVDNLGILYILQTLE

[13] = inhibitors of CMV-promoter luciferase reporter, dose response, counter-screen for Pax8 inhibitor project, cell-based, HEK293, luminescence, dry powder (AID 743020); type: functional
Mu-type opioid receptor = Mu-type opioid receptor (Homo sapiens, UniProt P35372); test: Counterscreen for agonists of heterodimerization of the mu 1 (OPRM1) and delta 1 (OPRD1) opioid receptors: Luminescence-based cell-based high throughput dose response assay to identify agonists of OPRM1 homodimerization.; type: functional;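 note: U2OS cells expressing OPRM1 and beta-arrestin as split beta-galactosidase partners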
[14] = non-specific cell cytotoxicity, dose response, cytotoxicity control for PAX8 inhibitor project, plate reader, dry powder samples (AID 743021); type: functional, cell-based
Paired box protein Pax-8 = Paired box protein Pax-8 (Homo sapiens, UniProt Q06710); test: inhibitors of PAX8-driven TPO luciferase reporter, dose response, RMG-I cells, cherry-pick (AID 687027); type: functional, cell-based;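 note: luciferase reporter driven by Pax8 target thyroperoxidase promoter measured by SteadyGlo luminescence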
[15] = biological target: Delta-type opioid receptor (Homo sapiens, UniProt P41143); test: Counterscreen for agonists of heterodimerization of the mu 1 (OPRM1) and delta 1 (OPRD1) opioid receptors: Luminescence-based cell-based high throughput dose response assay to identify agonists of OPRD1 homodimerization. [Related pubchem assays (depositor defined):AID504326, AID504355, AID504692, AID504904, AID504905]; type: functional
[16] = biological target: 5-hydroxytryptamine receptor 5A (Homo sapiens, UniProt P47898); test: Counterscreen for agonists of OPRM1-OPRD1 heterodimerization: luminescence-based cell-based high throughput dose response assay to identify agonists of 5-hydroxytryptamine (serotonin) 5A receptor (HTR5A). [Related pubchem assays (depositor defined):AID504326, AID504355, AID504692, AID504904, AID504905]; type: functional
H9c2 = test: cells; type: functional, cell-based; settings: Rattus norvegicus, H9c2, Myocardium;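 note: confirmatory concentration-response retest of ultra-high-throughput screening hits for modulation of myocardial damage; cell death induced by hydrogen peroxide oxidative stress; compound pretreatment for 60 min then peroxide exposure for 2 h; potency is for protecting the cells against peroxide damage rather than for killing them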
HeLa = test: HeLa cell cytotoxicity, dose response, cytotoxicity control, ATP luminescence, cherry-pick samples (AID 687004); type: functional, cell-based; settings: Homo sapiens
[17] = LGR2 antagonists, dose response, cell-based, HEK293, CRE-luciferase reporter, cherry pick, set 2 (AID 743343); type: functional;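 note: transfected cells were stimulated with diluted bursicon conditioned medium after compound addition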
[18] = HEK293 cell cytotoxicity, dose response, cytotoxicity control, plate reader, cherry-picked samples (AID 743446); type: functional, cell-based
[19] = HepG2 cell cytotoxicity, dose response, cytotoxicity control, plate reader, cherry-pick, antagonist series (AID 743416); type: functional, cell-based
[20] = A549 cell cytotoxicity, dose response, cytotoxicity control, plate reader, cherry-pick, antagonist series (AID 743412); type: functional, cell-based
[21] = MC4R antagonists, dose response, counter-screen for LGR2 antagonist project, cell-based, plate reader, cherry pick (AID 743444); type: functional;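 note: transfected HEK 293 cells stimulated with alpha-MSH peptide; potency of inhibitors of the alpha-MSH evoked signal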
fMet-Leu-Phe receptor = fMet-Leu-Phe receptor (Homo sapiens, UniProt P21462); test: FPR ligands, dose response (AID 519); type: functional
Sequence of fMet-Leu-Phe receptor (P21462 whole entry): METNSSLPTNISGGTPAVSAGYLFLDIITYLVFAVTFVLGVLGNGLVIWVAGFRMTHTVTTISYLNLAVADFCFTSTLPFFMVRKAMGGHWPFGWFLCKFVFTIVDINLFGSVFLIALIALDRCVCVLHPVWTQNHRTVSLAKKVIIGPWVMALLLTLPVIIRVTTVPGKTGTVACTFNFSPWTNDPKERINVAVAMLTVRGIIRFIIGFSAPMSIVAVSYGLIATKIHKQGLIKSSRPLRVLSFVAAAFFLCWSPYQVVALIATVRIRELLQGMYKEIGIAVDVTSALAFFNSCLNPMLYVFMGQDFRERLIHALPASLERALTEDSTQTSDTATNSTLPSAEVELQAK

Sequence of Paired box protein Pax-8 (Q06710 whole entry): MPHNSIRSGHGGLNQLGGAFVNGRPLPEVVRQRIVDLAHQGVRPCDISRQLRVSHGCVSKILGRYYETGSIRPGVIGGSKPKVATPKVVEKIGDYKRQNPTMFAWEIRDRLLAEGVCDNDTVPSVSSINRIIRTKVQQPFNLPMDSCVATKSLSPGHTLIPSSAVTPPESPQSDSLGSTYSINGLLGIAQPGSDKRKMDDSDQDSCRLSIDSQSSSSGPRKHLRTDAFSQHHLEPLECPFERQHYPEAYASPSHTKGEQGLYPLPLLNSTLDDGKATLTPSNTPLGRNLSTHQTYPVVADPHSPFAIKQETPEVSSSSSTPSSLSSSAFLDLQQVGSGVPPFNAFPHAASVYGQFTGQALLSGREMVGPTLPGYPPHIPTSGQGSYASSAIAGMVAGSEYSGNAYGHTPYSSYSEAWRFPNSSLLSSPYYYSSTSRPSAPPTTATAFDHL
Sequence of Delta-type opioid receptor (P41143 whole entry): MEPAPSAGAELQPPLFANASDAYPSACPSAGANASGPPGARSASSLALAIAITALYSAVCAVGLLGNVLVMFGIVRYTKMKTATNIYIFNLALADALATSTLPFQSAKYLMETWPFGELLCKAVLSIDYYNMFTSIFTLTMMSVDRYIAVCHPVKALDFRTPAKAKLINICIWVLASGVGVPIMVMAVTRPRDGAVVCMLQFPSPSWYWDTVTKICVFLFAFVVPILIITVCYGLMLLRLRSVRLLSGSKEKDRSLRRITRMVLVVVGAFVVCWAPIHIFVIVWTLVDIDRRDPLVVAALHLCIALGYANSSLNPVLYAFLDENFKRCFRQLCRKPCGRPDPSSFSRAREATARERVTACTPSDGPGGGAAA
Sequence of Melanocortin receptor 4 (P32245 whole entry): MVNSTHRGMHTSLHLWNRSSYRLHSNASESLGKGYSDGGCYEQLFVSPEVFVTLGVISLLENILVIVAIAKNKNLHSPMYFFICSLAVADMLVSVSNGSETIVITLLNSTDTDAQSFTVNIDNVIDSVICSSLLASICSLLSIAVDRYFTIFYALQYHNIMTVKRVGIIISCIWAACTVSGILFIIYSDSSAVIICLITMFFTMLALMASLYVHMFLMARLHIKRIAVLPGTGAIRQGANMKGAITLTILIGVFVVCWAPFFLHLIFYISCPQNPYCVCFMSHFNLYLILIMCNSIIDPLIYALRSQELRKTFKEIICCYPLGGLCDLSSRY
Sequence of Mu-type opioid receptor (P35372 whole entry): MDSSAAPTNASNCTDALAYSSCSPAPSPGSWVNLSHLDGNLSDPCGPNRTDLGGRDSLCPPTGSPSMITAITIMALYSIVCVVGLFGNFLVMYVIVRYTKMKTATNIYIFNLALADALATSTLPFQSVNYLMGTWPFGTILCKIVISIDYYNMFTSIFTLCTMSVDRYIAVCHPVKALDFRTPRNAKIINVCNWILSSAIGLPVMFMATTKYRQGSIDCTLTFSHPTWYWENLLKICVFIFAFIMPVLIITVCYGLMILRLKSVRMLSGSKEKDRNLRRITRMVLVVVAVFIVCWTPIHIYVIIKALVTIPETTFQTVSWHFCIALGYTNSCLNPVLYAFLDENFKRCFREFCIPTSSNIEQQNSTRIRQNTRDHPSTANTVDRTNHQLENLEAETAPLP
Sequence of 5-hydroxytryptamine receptor 5A (P47898 whole entry): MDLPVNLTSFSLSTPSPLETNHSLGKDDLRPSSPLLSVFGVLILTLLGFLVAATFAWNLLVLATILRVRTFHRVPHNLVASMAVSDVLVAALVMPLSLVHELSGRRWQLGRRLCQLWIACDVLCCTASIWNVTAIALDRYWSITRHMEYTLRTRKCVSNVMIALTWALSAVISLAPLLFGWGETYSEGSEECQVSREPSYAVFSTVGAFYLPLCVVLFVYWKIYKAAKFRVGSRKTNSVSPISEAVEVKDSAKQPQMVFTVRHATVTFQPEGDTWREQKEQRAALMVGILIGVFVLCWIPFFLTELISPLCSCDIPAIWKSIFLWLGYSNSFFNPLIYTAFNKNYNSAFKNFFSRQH
Sequence of DNA repair protein RAD52 homolog (P43351 whole entry): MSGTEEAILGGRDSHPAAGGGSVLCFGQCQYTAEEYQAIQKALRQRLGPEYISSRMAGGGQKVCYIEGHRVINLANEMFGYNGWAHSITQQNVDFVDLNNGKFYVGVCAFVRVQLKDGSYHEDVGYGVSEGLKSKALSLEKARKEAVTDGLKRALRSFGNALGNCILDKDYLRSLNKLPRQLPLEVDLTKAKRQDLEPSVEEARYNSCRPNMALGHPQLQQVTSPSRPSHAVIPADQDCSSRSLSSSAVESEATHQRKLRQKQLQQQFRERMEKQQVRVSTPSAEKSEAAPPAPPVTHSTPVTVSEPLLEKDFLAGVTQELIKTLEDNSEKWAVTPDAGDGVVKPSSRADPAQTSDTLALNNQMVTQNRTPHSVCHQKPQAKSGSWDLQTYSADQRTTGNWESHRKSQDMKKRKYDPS

Cc1ccc(NC(=O)c2cc(S(=O)(=O)NCCC3=CCCCC3)ccc2F)cc1F
AC50 [1]: 4.13 µM (active)
AC50 [2]: 41.5 µM (active)
AC50 (INS1): 3.03 µM (active)
AC50 [3]: 3.83 µM (active)
AC50 [4]: 46.1 µM (active)

CCCCCCCCCCOC(=O)C[n+]1c(COc2cccc(C)c2)n(C)c2ccccc21
EC50 (Protein RecA): 9.88 µM (active)
AC50 [5]: 32.5 µM (active)
EC50 [6]: 1 µM (active)
EC50 [7]: 4.16 µM (active)
AC50 [8]: 3.19 µM (active)
AC50 [9]: 11.9 µM (active)
AC50 (INS1): 3.87 µM (active)
EC50 (Streptococcus): 7.73 µM (active)
EC50 (Melanocortin receptor 4): > 89.2 µM (inactive)
EC50 [10]: > 60 µM (not active)
IC50 [11]: > 20 µM (inactive)
IC50 [12]: 15.9 µM (active)

CCCCC(=O)N1CCN(c2ccc(OC)cc2[N+](=O)[O-])CC1
AC50 [13]: < 21.5 µM (active)

CCN1CCN(Cc2ccc(NC(=O)c3ccc(C)c(NC(=O)c4cnc5cc(C(F)(F)F)ccc5c4O)c3)cc2C(F)(F)F)CC1
EC50 (Mu-type opioid receptor): > 92.5 µM (inactive)
AC50 [14]: 26.2 µM (active)
AC50 (Paired box protein Pax-8): 10.6 µM (active)
EC50 [15]: 11.2 µM (inactive)
AC50 (INS1): 4.42 µM (active)
IC50 [11]: > 20 µM (inactive)
EC50 [16]: > 92.5 µM (inactive)

CS(=O)(=O)c1ccc(-c2cnc3c(NC=O)cc(-c4ccsc4)cn23)cc1
IC50 (H9c2): 4.99 µM (active)
AC50 (HeLa): > 52 µM (inactive)

Oc1nc2ccccc2n1C1CCN(C(c2cc3ccccc3o2)c2nnnn2-c2ccc3c(c2)OCCO3)CC1 (stereo not drawn)
AC50 [17]: 11.6 µM (active)
AC50 [14]: 24.3 µM (active)
AC50 [18]: 15.5 µM (active)
AC50 (Paired box protein Pax-8): 5.8 µM (active)
AC50 [19]: 39.1 µM (active)
AC50 [20]: 12.6 µM (active)
AC50 [21]: 8.87 µM (active)

COc1cc(-n2nc(C)c3c2OC(N)=C(C#N)C3c2ccccc2)c(Cl)c(Br)c1O (stereo not drawn)
Ki (fMet-Leu-Phe receptor): 32.5 µM (inactive)
EC50 (Protein RecA): 3.47 µM (active)
AC50 [8]: 15.6 µM (active)

CC1(C)S[C@@H]2[C@H](NC(=O)Cc3ccccc3)C(=O)N2[C@H]1C(=O)O [PENICILLIN G POTASSIUM]
Ki (fMet-Leu-Phe receptor): 7.8 µM (active)
